Data reported in patent US4450160A, “1,2-Dihydropyrido[3,4-b]-pyrazines and method and intermediates for preparing same” (Southern Research Institute, priority 1982, dated 1984).

Experiments:
KB cell culture = conditions: abstract, Gatlinburg 1976; cited from earlier work
leukemia L1210 = conditions: mouse, in vivo; cited from earlier work
[1] = system: cultured lymphoid leukemia L1210 cells; experiment: Mitotic Index, fraction of cultured L1210 cells in mitoses (metaphase); format: cell-based
[2] = system: Lymphocytic leukemia P388; experiment: P388 lymphocytic leukemia, 10^6 tumor cell implant, i.p., % ILS; format: in vivo, mice
From the text: (d) Lymphocytic leukemia p388. Geran, R. I., Greenberg, N. H., MacDonald,
M. M., Schulacker, A. M., Abott, B. J., Cancer Chemother. Rep., 1972, Par

[3] = system: lymphoid leukemia L1210 cells; experiment: inhibition of proliferation of cultured lymphoid leukemia L1210 cells; format: cell-based; conditions: Mus musculus, concentration that inhibits proliferation to 50% of control growth, 24 hours, (g) = average of 2 determinations, read-out: L1210 ID50
From the text: (b) Concentration of agent that inhibits proliferation of cultured lymphoi
leukemia L1210 cells to 50% control growth.

Botrytis cinereae = experiment: antifungal activity; format: cell-based
Procedure: (§1) The 1,2-dihydropyrido[3,4-b]pyrazines at concentrations that prevented any increase in the cell number during a 24 hour period had little effect upon the synthesis of DNA, RNA, and protein by cultured L1210 cells during exposure for four hours. […] Exposure of cultured L1210 cells to the 1,2-dihydropyrido[3,4-b]pyrazines inhibited cell division as measured by the mitotic index (MI) (Table V), which is the fraction of the cell population that is made up of metaphase cells. […] For example, 5-amino-1,2-dihydro-3-phenylpyrido[3,4-b]pyrazin-7-ylcarbamate was active against Saccharomyces cerevisiae, Asperigillus niger, Penicillium italicum and Botrytis cinereae.

Saccharomyces cerevisiae = experiment: antifungal activity; format: cell-based
Procedure: as §1

Asperigillus niger = experiment: antifungal activity; format: cell-based
Procedure: as §1

Penicillium italicum = experiment: antifungal activity; format: cell-based
Procedure: as §1

[4] = system: P388 cells that were resistant to vincristine; experiment: vincristine-resistant line of P388 in mice; format: in vivo
From the text: (h) Vincristineresistant line of P388. Wilkoff, L. J. and Dulmadge, E. A.,

[5] = Mus musculus, P388, ip, i.p. implant, days 1-5
[6] = Mus musculus, P388, ip, i.p. implant, days 1-5, 10 mg/kg
[7] = Mus musculus, P388, ip, i.p. implant, days 1-9
[8] = Mus musculus, P388, ip, 24 h, i.p. implant, day 1

CCOC(=O)Nc1cc2c(c(N)n1)N=C(CN(C)c1ccc(C(=O)OC)cc1)CN2
cytotoxicity in the KB cell culture screen (KB cell culture): showed cytotoxicity
activity against leukemia L1210 in mice (leukemia L1210): activity against leukemia L1210 in mice

CCOC(=O)Nc1cc2c(c(N)n1)N=C(c1ccc(C)cc1C)CN2 [2,4-(CH3)2 C6 H3]
Mitotic Index 12h ([1]; 0.1 μM): 0.66
ILS at 20 mg/kg ([2]; Mus musculus, P388, ip, i.p. implant, days 1-5, 20 mg/kg (highest dose tested)): 23%
IC50 [3]: 42 nM

CCOC(=O)Nc1cc2c(c(N)n1)N=C(c1ccc(Cl)cc1Cl)CN2 [2,4-Cl2 C6 H3]
Mitotic Index 24h ([1]; 0.3 μM): 0.20
ILS at 12.5 mg/kg [2, 5]: 49%
IC50 [3]: 44 nM

CCOC(=O)Nc1cc2c(c(N)n1)N=C(c1ccc3ccccc3c1)CN2 [2-C10 H7]
Mitotic Index 12h ([1]; 0.03 μM): 0.60
ILS at 5 mg/kg ([2]; Mus musculus, P388, ip, i.p. implant, days 1-5, 5 mg/kg): 53%
ILS at 10 mg/kg [2, 6]: 66%
30th-day survivor ([2]; days 1-5, 10 mg/kg): One
IC50 [3]: 6 nM

CCOC(=O)Nc1cc2c(c(N)n1)N=C(c1cc(OC)c(OC)c(OC)c1)CN2 [3,4,5-(CH3 O)3 C6 H2]
Mitotic Index 12h ([1]; 0.3 μM): 0.41

CCOC(=O)Nc1cc2c(c(N)n1)N=C(c1ccc(C)c(C)c1)CN2 [3,4-(CH3)2 C 6 H3]
Mitotic Index 24h ([1]; 0.3 μM): 0.16
ILS at 12.5 mg/kg [2, 5]: 44%
IC50 [3]: 138 nM

CCOC(=O)Nc1cc2c(c(N)n1)N=C(c1ccc(Cl)c(Cl)c1)CN2 [3,4-Cl2 C6 H3]
Mitotic Index 12h ([1]; 0.01 μM): 0.69
Mitotic Index 12h ([1]; 0.03 μM): 0.53
ILS at 10 mg/kg [2, 6]: 58%
IC50 [3]: 18 nM

CCOC(=O)Nc1cc2c(c(N)n1)N=C(c1cccc(OC)c1)CN2 [3-CH3 OC6 H4]
Mitotic Index 12h ([1]; 0.003 μM): 0.56
IC50 [3]: 1.22 nM

CCOC(=O)Nc1cc2c(c(N)n1)N=C(c1ccc(C(F)(F)F)cc1)CN2 [4-CF3 C6 H4, ethyl 5-amino-1,2-dihydro-3-[4'-(trifluoromethyl)phenyl]pyrido[3,4-b]pyrazin-7-ylcarbamate]
Mitotic Index 24h ([1]; 0.3 μM): 0.01
ILS at 90 mg/kg ([2]; Mus musculus, P388, ip, 24 h, i.p. implant, day 1, 90 mg/kg (highest dose tested)): 0%
ILS at 30 mg/kg ([2]; Mus musculus, P388, ip, i.p. implant, days 1,5,9, 30 mg/kg (highest dose tested)): 0%
ILS at 50 mg/kg [2, 7]: 17%
IC50 [3]: 150 nM

CCOC(=O)Nc1cc2c(c(N)n1)N=C(c1ccc(C)cc1)CN2 [4-CH3 C6 H4]
Mitotic Index 24h ([1]; 0.3 μM): 0.22
ILS at 12 mg/kg ([2]; Mus musculus, P388, ip, i.p. implant, days 1-5, 12 mg/kg): 30%
IC50 [3]: 24 nM

CCOC(=O)Nc1cc2c(c(N)n1)N=C(c1ccc(OC)cc1)CN2 [4-CH3 OC6 H4]
Mitotic Index 24h ([1]; 0.3 μM): 0.27
ILS at 25 mg/kg [2, 8]: 50%
ILS at 25 mg/kg ([2]; Mus musculus, P388, ip, i.p. implant, days 1,5,9): 63%
ILS at 3 mg/kg [2, 7]: 35%
IC50 [3]: 4.1 nM

CCOC(=O)Nc1cc2c(c(N)n1)N=C(c1ccc(F)cc1)CN2 [4-FC6 H4]
Mitotic Index 12h ([1]; 0.01 μM): 0.47
ILS at 3 mg/kg [2, 5]: 49%
IC50 [3]: 6.8 nM

CCOC(=O)Nc1cc2c(c(N)n1)N=C(c1ccc(N)cc1)CN2 [4-H2 NC6 H4]
Mitotic Index 24h ([1]; 0.3 μM): 0.19
ILS at 50 mg/kg [2, 8]: 35%
IC50 [3]: 23 nM

CCOC(=O)Nc1cc2c(c(N)n1)N=C(c1ccccc1)CN2 [C6 H5, Ethyl 5-Amino-1,2-dihydro-3-phenylpyrido(3,4-b)pyrazin-7-ylcarbamate]
antifungal activity (Botrytis cinereae): active
antifungal activity (Saccharomyces cerevisiae): active
antifungal activity (Asperigillus niger): active
antifungal activity (Penicillium italicum): active
Mitotic Index 12h ([1]; 0.03 μM): 0.65
Mitotic Index 24h ([1]; 0.3 μM): 0.54
activity against P388 cells resistant to vincristine (in words) ([4]; in mice): active in mice against P388 cells that were resistant to vincristine
P388 % ILS ([4]; vincristine-resistant line of P388, day 1, 12 mg/kg): 50%
ILS at 12.5 mg/kg ([2]; Mus musculus, P388, ip, 24 h, i.p. implant, day 1, average of 2 determinations): 55%
ILS at 4.5 mg/kg ([2]; Mus musculus, P388, ip, i.p. implant, days 1,5,9, 4.5 mg/kg): 42%
ILS at 2 mg/kg ([2]; Mus musculus, P388, ip, i.p. implant, days 1-9, 2 mg/kg): 51%
IC50 [3]: 4.7 nM

CCOC(=O)Nc1cc2c(c(N)n1)N=C(c1ccccc1)CN2C [C6 H5, R3 = CH3]
Mitotic Index 12h ([1]; 0.3 μM): 0.68
ILS at 100 mg/kg ([2]; Mus musculus, P388, ip, 24 h, i.p. implant, day 1, 100 mg/kg): 12%
IC50 [3]: 160 nM

CCOC(=O)Nc1cc2c(c(N)n1)N=C(c1ccccc1)C(C)N2 (centres unmarked) [C6 H5, R4 = CH3]
Mitotic Index 12h ([1]; 0.003 μM): 0.69
IC50 [3]: 0.51 nM

COC(=O)Nc1nc2ccc(C(=O)c3cccs3)cc2[nH]1 [Nocodazole, reference compound]
Mitotic Index 24h ([1]; 0.3 μM): 0.19
IC50 [3]: 27 nM

CC[C@]1(O)C[C@H]2CN(CCc3c([nH]c4ccccc34)[C@@](C(=O)OC)(c3cc4c(cc3OC)N(C=O)[C@H]3[C@@](O)(C(=O)OC)[C@H](OC(C)=O)[C@]5(CC)C=CCN6CC[C@]43[C@@H]65)C2)C1 [Vincristine, reference compound]
ILS at 2.7 mg/kg ([2]; Mus musculus, P388, ip, 24 h, i.p. implant, day 1, 2.7 mg/kg): 100%
ILS at 1.3 mg/kg ([2]; Mus musculus, P388, ip, i.p. implant, days 1,5,9, 1.3 mg/kg): 181%
ILS at 0.33 mg/kg ([2]; Mus musculus, P388, ip, i.p. implant, days 1-9, 0.33 mg/kg): 145%
40th-day survivors ([2]; day 1, 2.7 mg/kg): Two
40th-day survivors ([2]; days 1,5,9, 1.3 mg/kg): Three
40th-day survivors ([2]; days 1-9, 0.33 mg/kg): Three
IC50 [3]: < 1 nM
